In publication PMC7139549, “TLD1433 Photosensitizer Inhibits Conjunctival Melanoma Cells in Zebrafish Ectopic and Orthotopic Tumour Models” (Cancers, 2020):

Tested on: CRMM2 cells injected behind the eye (RO) of zebrafish embryos
Assay: Zebrafish orthotopic CM tumour model, CRMM2
Assay type: in vivo, Zebrafish (Danio rerio)
Conditions: for PI (Fluorescence Intensity) / PI (Tumour Area) / Relative Tumour Burden as Measured by Fluorescence Intensity / Tumour Area: CRMM2, Orthotopic Model; for PI (Fluorescence Intensity) / PI (Tumour Area): 0 vs 114 J.cm^−2
Method: The zebrafish ectopic conjunctival melanoma tumour model has been described previously. In this model, around 200 fluorescent CM cells are injected into the Duct of Cuvier at 2 dpf, and then disseminate through the blood circulation and grow in the head and tail. To establish the orthotopic tumour model, around 100 red, (td)Tomato fluorescent CRMM1 or CRMM2 cells were injected RO at 2 dpf into tg(Fli:GFP/Casper), endothelial reporter transgenic zebrafish with green fluorescent vasculature and examined by fluorescent microscopy at day 1 and 4 after engraftment (Figure 6A). Tumour expansion at the injection site was measured as fluorescence intensity and tumour area.
For cancer cell injection, two days post-fertilization (dpf), dechorionated zebrafish embryos were anaesthetized with 0.003% tricaine (Sigma) and plated on a 10 cm Petri dish covered with 1.5% of solidified agarose. CRMM1 and CRMM2 cells were suspended in PBS containing 2% polyvinylpyrrolidone (PVP; Sigma-Aldrich) with a concentration of 50,000 cells/µL and loaded into borosilicate glass capillary needles (1 mm O.D. × 0.78 mm I.D.; Harvard Apparatus). In the ectopic model, 200 (td)Tomato fluorescent CM cells were injected into the Duct of Cuvier or at 2 dpf, which led to dissemination through the blood circulation and outgrowth in the head and tail. In orthotopic tumour model, 100 (td)Tomato fluorescent CRMM1 or CRMM2 cells were injected RO in 2 dpf embryos using a Pneumatic Picopump and a manipulator (WPI). After injection, the embryos were incubated in a 34 °C incubator. Images were acquired at 1-, 2- and 4-days post injection (dpi) with a Leica M165 FC stereo fluorescence microscope. Tumor growth was quantified by calculating the total fluorescence intensity and area with the ZF4 pixel counting program (Leiden). Each experiment was performed at least 3 times with a group size of >30 embryos.
Fluorescent CRMM1 and CRMM2 cells were injected at 2 dpf into the Duct of Cuvier (ectopic model) and behind the eye (orthotopic model) and TLD1433 was delivered by WA, IV and RO administration with or without a light treatment as described in 4.8. For the WA administration, the 4.6 nM TLD1433 solution was added to the tumour cells injected zebrafish at 2.5, 3.5, 4.5, 5.5 dpf and maintained for 12 h. At 3, 4, 5, 6 dpf, the fish water was refreshed, and after 1 h, embryos were exposed to green light for 90 min (21 mW/cm^2, 114 J/cm^2, 520 nm). For the IV and RO administration, 1 nL of 2.3 mM TLD1433 solution was injected via the dorsal vein or the RO site at 3, 4, 5, 6 dpf. After 1 h interval, the embryos were exposed to green light for 90 min (21 mW/cm^2, 114 J/cm^2, 520 nm). After treatment, the embryos images were acquired with a Leica M165 FC stereo fluorescence microscope. Tumor growth was quantified by calculating the total fluorescence intensity and area with the ZF4 pixel counting program (Leiden). Each experiment was performed at least 3 times with a group size of >30 embryos.

[1] = Intravenous (1 nL of 2.3 mM), Light Dose 0 J.cm^−2, vs control dark group (100%)
[2] = Intravenous (1 nL of 2.3 mM), Light Dose 114 J.cm^−2, vs control dark group (100%)
[3] = Water (4.6 nM), Light dose 0 J.cm^−2, vs control dark group (100%)
[4] = Water (4.6 nM), Light dose 114 J.cm^−2, vs control dark group (100%)
[5] = CRMM2, orthotopic model, RO 2.3 mM, green light 114 J.cm^−2

In the case of `Cc1ccnc(-c2cc(C)ccn2)c1.Cc1ccnc(-c2cc(C)ccn2)c1.[Cl-].[Cl-].[Ru+2].c1csc(-c2ccc(-c3ccc(-c4nc5c6cccnc6c6ncccc6c5[nH]4)s3)s2)c1` [TLD1433], the “PI (Fluorescence Intensity)” value (Intravenous (1 nL of 2.3 mM)) is reported as 1.0, the “PI (Tumour Area)” value (Intravenous (1 nL of 2.3 mM)) is reported as 1.1 and the “Relative Tumour Burden as Measured by Fluorescence Intensity” value (“Relative Tumour Burden as Measured” below) [1] is reported as 98%. The “Tumour Area” value [1] was 97%, the “Relative Tumour Burden as Measured” value [2] was 95% and the “Tumour Area” value [2] was 93%. The “PI (Tumour Area)” value (Retro orbital (1 nL of 2.3 mM)) was 3.4, the “Tumour Area” value (Retro orbital (1 nL of 2.3 mM), Light dose 0 J.cm^−2, vs control dark group (100%)) was 99% and the “Tumour Area” value (Retro orbital (1 nL of 2.3 mM), Light dose 114 J.cm^−2, vs control dark group (100%)) was 29%. For the same molecule, the “PI (Fluorescence Intensity)” value (Retro-orbital (1 nL of 2.3 mM)) was 2.2, the “Relative Tumour Burden as Measured” value (Retro-orbital (1 nL of 2.3 mM), Light Dose 0 J.cm^−2, vs control dark group (100%)) was 100% and the “Relative Tumour Burden as Measured” value (Retro-orbital (1 nL of 2.3 mM), Light Dose 114 J.cm^−2, vs control dark group (100%)) was 45%. The “PI (Fluorescence Intensity)” value (Water (4.6 nM)) was 0.92, the “PI (Tumour Area)” value (Water (4.6 nM)) was 1.1 and the “Relative Tumour Burden as Measured” value [3] was 96%. For the same molecule, the “Tumour Area” value [3] was 104%, the “Relative Tumour Burden as Measured” value [4] was 104% and the “Tumour Area” value [4] was 95%. For the same molecule, the diminished fluorescence intensity [5] was 55%, the diminished tumour area [5] was 71% and the “effect on tumour burden (in words)” value (CRMM2, orthotopic model, WA at the MTD (4.6 nM), light 114 J.cm^−2) was “did not inhibit tumour burden”.
